Reference: paper PMC10830684, “Effect of Oregon grape root extracts on P-glycoprotein mediated transport in in vitro cell lines” (Journal of Pharmacy & Pharmaceutical Sciences, 2024)

Legend:
[1] = test system: Caco-2 cells; assay: MTT cytotoxicity assay in Caco-2 cells; assay type: cell-based, human; conditions: for MTT assay: 4 hours exposure
Text: (§1) We initiated cytotoxicity experiments with the Caco-2, MDCKII-MDR1 and MDCKII-wild type cells on Day 7 (Caco-2) and Day 4 (MDCKII-MDR1 and MDCKII-wild type) after the initial plating of the cells at 2.5 × 10^3 cells/well in 48-well plates (Becton Dickinson, Franklin Lakes, NJ, USA). See details of preparation for the cytotoxicity experiments in Supplementary Material.
(§2) We initiated cytotoxicity experiments with the Caco-2, MDCKII-MDR1 and MDCKII-wild type cells on Day 7 (Caco-2) and Day 4 (MDCKII-MDR1 and MDCKII-wild type) after the initial plating of the cells at 2.5x10^3 cells/well in 48-well plates (Becton Dickinson, Franklin Lakes, NJ, USA). Stock solutions of 10 mM berberine or berbamine were prepared by dissolving the compounds in DMSO (berberine) or distilled water (berbamine).
(§3) The LDH enzymatic activities were assayed using the method of Mitchell et al.(1). […] Enzyme leakage into the medium was expressed as the percentage of total cellular LDH. The MTT (3-(4,5-dimethythiazole-2yl)-2,5-diphenyl tetrazolium bromide) reduction assay was done according to Mosmann (2). This assay was conducted immediately with the same cells used in the LDH study. The results were expressed as the percentage of negative controls.

[2] = test system: Caco-2 cells; assay: LDH leakage cytotoxicity assay in Caco-2 cells; assay type: cell-based, human; conditions: 4 hours exposure
Text: as §1, §2, §3

[3] = test system: MDCKII wild-type cells; assay: MTT cytotoxicity assay in MDCKII wild-type cells; assay type: cell-based, Canine; conditions: MDCKII-WT cells, 4 hours exposure
Text: as §1
We initiated cytotoxicity experiments with the Caco-2, MDCKII-MDR1 and MDCKII-wild type cells on Day 7 (Caco-2) and Day 4 (MDCKII-MDR1 and MDCKII-wild type) after the initial plating of the cells at 2.5x10^3 cells/well in 48-well plates (Becton Dickinson, Franklin Lakes, NJ, USA). Stock solutions of 10 mM berberine or berbamine were prepared by dissolving the compounds in DMSO (berberine) or distilled water (berbamine). […] The final concentration of DMSO was 0.003% (v/v), 0.03% (v/v), 0.3% (v/v), 1% (v/v), 1.5% (v/v), and 3% (v/v) DMSO/culture medium for 0.3 μM, 3 μM, 30 μM, 100 μM, ,150 μM, and 300 μM, respectively. The final concentration of ethanol was 0.15% (v/v) ethanol/culture medium. Ketoconazole (75 µM) was used as a positive control and no treatment (medium alone) was used as a negative control for each experiment.
as §3

[4] = test system: P-gp; design: method as in PMID 12434406; conditions: Caco-2 cells; seven day pretreatment; 30 µM; cited from earlier work
[5] = design: method as in PMID 16086103; conditions: renal-transplant patients; co-administration of 200 mg berberine three times a day for 12 days; cited from earlier work
[6] = test system: MDCKII wild-type cells; assay: Effect on 3H-CsA and 3H-digoxin transport in MDCKII wild-type cells; conditions: MDCKII-WT; for Papp (B to A) of 3H-CsA: 0.5 µM 3H-CsA; for Papp (B to A) of 3H-digoxin: 0.5 µM 3H-digoxin

COc1ccc2cc3[n+](cc2c1OC)CCc1cc2c(cc1-3)OCO2.[Cl-] [Berberine, Berberine chloride]
MTT assay ([1]; 0.03 µM): □ (%MTT reduction is not significantly decreased compared with the negative control)
MTT assay ([1]; 3.0 µM): □ (%MTT reduction is not significantly decreased compared with the negative control)
MTT assay ([1]; 100 µM): □ (%MTT reduction is not significantly decreased compared with the negative control)
MTT assay ([1]; 150 µM): 76.37 ± 2.13%
earliest time of significant increase in LDH leakage and decrease in MTT reduction ([1]; 150 µM, time-response 2, 4, 6, 8 hr, data not shown): 4 h
MTT assay ([1]; 300 µM): 58.25 ± 6.37%
MTT assay ([1]; 300 µM, listed as berberine): 58.25 ± 9.24%
LDH assay ([2]; 150 µM): 25.93 ± 4.78%
LDH assay ([2]; 300 µM): 44.88 ± 2.09%
MTT assay ([3]; 0.03 µM): □ (%MTT reduction is not significantly decreased compared with the negative control)
MTT assay ([3]; 3.0 µM): □ (%MTT reduction is not significantly decreased compared with the negative control)
MTT assay ([3]; 100 µM): □ (%MTT reduction is not significantly decreased compared with the negative control)
MTT assay ([3]; 150 µM): □ (%MTT reduction is not significantly decreased compared with the negative control)
MTT assay ([3]; 300 µM): 24.82 ± 15.91%
increase of the efflux of daunomycin [4]: 1.4 fold
increase of mean area under the curve of CsA [5]: 34.5%
Papp (B to A) of 3H-CsA ([6]; 10 µM compound): 4.07 ± 0.56 x 10^−6 cm/s
Papp (B to A) of 3H-digoxin ([6]; 10 µM compound): 7.55 ± 0.46 x 10^−6 cm/s
Papp (B to A) of 3H-CsA ([6]; 30 µM compound): 4.34 ± 0.29 x 10^−6 cm/s
Papp (B to A) of 3H-digoxin ([6]; 30 µM compound): 6.95 ± 0.71 x 10^−6 cm/s
